Assay: gradient 5% acetonitrile 3 min, to 50% in 2 min, to 85% in 15 min, held 3 min, 100 µL/min
Conditions: column: Zorbax Extend-C18 2.1 x 50 mm; eluents: water / acetonitrile, 0.1% formic acid
In short: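 Each retention time is based on an adduct peak selected computationally and verified by manual inspection. Measurements used HPLC–quadrupole time-of-flight mass spectrometry in positive and negative ionization mode on mixtures of ~100 pure standards. Chromatography ran on a Zorbax Extend-C18 column (2.1 × 50 mm, 1.8 μm) at 100 μL/min with water and acetonitrile, each containing 0.1% formic acid, and dead and dwell volumes of 40 μL and 900 μL.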

Structure (SMILES) | RP-LC retention time [s]
CCc1nnc(C2CN(C)CC23CCN(S(=O)(=O)c2ccc(F)c(C)c2)CC3)o1 (stereo not drawn) | 634
OCC1CN(c2ccncn2)CC12CCN(Cc1c[nH]c3ccccc13)CC2 (stereo not drawn) | 579
CNC(=O)c1cc(=O)[nH]c2ccc(F)cc12 | 584
Cc1cc(N2CCOCC2)n2nc(CN3CCc4ccccc4C3)nc2n1 | 590
CC(C)CNC(=O)c1nn(-c2ccc(F)cc2)nc1CO | 888
CCn1cc(S(=O)(=O)N2CC(N(C)Cc3cccnc3)C2)cn1 | 565
CC(C)CNC(=O)NCCC1CCN(S(=O)(=O)c2ccc(F)cc2)CC1 | 824
CC1Oc2ccc(-c3csc(NC(=O)C4CCCCC4)n3)cc2NC1=O (stereo not drawn) | 922
Cc1ccc(S(=O)(=O)N2CCC3(CC2)CC(C)(O)CCO3)cc1F (stereo not drawn) | 846
Cc1nn(-c2cc(N3CCCC3)ncn2)c(C)c1CCC(=O)NCc1ccc2c(c1)OCO2 | 921
CCCn1c(C)cnc1C1CN(S(=O)(=O)c2ccc(Cl)c(Cl)c2)C1 | 724
O=C(Cn1cnc2nc(N3CCCC(C(=O)NC4CC4)C3)sc2c1=O)Nc1ccc(Cl)cc1 (stereo not drawn) | 721
Cc1nn(-c2ccc(F)cc2)c(C)c1S(=O)(=O)N1CCC(C(=O)NCC2CCCO2)CC1 (stereo not drawn) | 742
CC(NC(=O)Cn1cc(C(=O)C(=O)N2CCOCC2)c2ccccc21)c1ccc2c(c1)OCCCO2 (stereo not drawn) | 787
O=C(CSc1nnc2ccccn12)N1CCOCC1 | 551
CC(=O)N1CCCc2cc(S(=O)(=O)CCC(=O)Nc3ccc(Br)cc3F)ccc21 | 824
CCC(CC)C(=O)N1C[C@H](c2nc(-c3ccncc3)no2)[C@@H](C)C1 | 793
Cc1cccc(CN2C(=O)CN(S(C)(=O)=O)CC2(C)C(=O)NCc2ccc(Cl)cc2)c1 (stereo not drawn) | 886

Structure (SMILES) | RP-LC retention time [s]
O=c1ccc(N2CCCN(S(=O)(=O)c3cccc(Cl)c3)CC2)nn1-c1ccccc1 | 868
CC(=O)N1c2ccc(S(=O)(=O)N3CCCCC3)cc2CC1C(=O)NCCCN1CCCCC1 (stereo not drawn) | 577
Cc1cc(C(=O)NCCc2ccco2)c2c(=O)n(C)c(=O)n(C)c2n1 | 688
CCCNC(=O)C(=O)NCC(c1ccc2c(c1)OCO2)N1CCOCC1 (stereo not drawn) | 595
CCn1nccc1-c1csc(S(=O)(=O)NCc2cccs2)c1 | 866
CCNS(=O)(=O)c1ccc(NC(=O)C2CCN(C(=O)C(C)(C)C)CC2)cc1 | 722
O=C(NC1CCc2nnc(C3CC3)n2CC1)c1ccsc1 (stereo not drawn) | 594
CC(=O)Nc1ccc(C(=O)N2CCCCCC2)o1 | 665
CC1(C)CC(=O)C2=C(C1)N(CC1CCCO1)C(=O)C2(NC(=O)c1ccccc1)C(F)(F)F (stereo not drawn) | 906
O=C(CN1CCN(C(=O)Nc2ccc(Cl)cc2)CC1=O)NCc1ccco1 | 685
CCCc1noc(-c2ccc3nnc(CC(=O)N4CCSCC4)n3c2)n1 | 755
CCCS(=O)(=O)N1CC(F)(F)C[C@H]1c1nc(-c2cccnc2)no1 | 802
CCCN1CCN(C(=O)CCc2c(C)c(C(=O)OCC)n(C)c2C)CC1 | 641
CCc1c(C(=O)O)nnn1-c1ccc(Cl)c(C)c1 | 809
CCC1Oc2ccc(S(=O)(=O)N3CCC(C(=O)NC4CCCCC4)CC3)cc2NC1=O (stereo not drawn) | 838
CCc1nnc([C@@H]2CC(F)(F)CN2C(=O)Cn2ccc(C)n2)o1 | 646
Cn1cccc1C(=O)C(=O)NCCc1ccc(Cl)cc1 | 939
Cc1oc(-c2[nH]ncc2C(=O)N2CCCC2)cc1S(=O)(=O)Nc1ccc(F)cc1 | 705

Now from value to compound:

RP-LC retention time [s] | Structure (SMILES)
665 | COCCn1ccc2nc(C)c(C(=O)NCCCc3ccco3)cc2c1=O
1260 | Cc1ccc(Sc2nccnc2N2CCCC(C(=O)Nc3ccc(C)c(F)c3)C2)cc1 (stereo not drawn)
970 | CCc1cccc(NC(=O)CCc2c(C)nc3nc(-c4cc(OC)cc(OC)c4)nn3c2C)c1
733 | CCn1c(CCNC(=O)c2ccc(OC)cc2C)nc2cccnc21
620 | Cn1c(CN2CCN(C(=O)NC(c3ccccc3)c3ccccc3)CC2)nc2ccccc21
842 | CC(C)c1ccc(CNc2nc3ccncc3n(Cc3ccccc3)c2=O)cc1
760 | CCc1ccc(N2CC(c3noc(-c4cnccn4)n3)CC2=O)cc1 (stereo not drawn)
558 | Cn1c(CN2CCN(C(=O)Nc3ccccc3C(F)(F)F)CC2)nc2ccccc21
585 | COc1ccc(NC(=O)C2CCN(c3cncnc3N3CCN(C)CC3)CC2)cc1Cl
746 | CCOC(=O)Cn1c(C2CC(=O)N(c3ccccc3F)C2)nc2ccccc21 (stereo not drawn)
859 | Cc1noc(C)c1C1CCCN1C(=O)c1cc(-c2ccccc2F)no1 (stereo not drawn)
914 | Cc1nn(CC(=O)NCc2ccc(F)cc2F)c(=O)c2nc(-c3ccccc3)sc12
603 | O=C(c1cncc(Br)c1)N1CCN(c2ccc(-c3ccco3)nn2)CC1
916 | COc1ccc(OCc2nc(-c3ccc4nnn(C)c4c3)no2)cc1
731 | COc1ccc(-n2cc(C(=O)O)c3c2C(C(F)(F)F)CC(=O)N3)c(OC)c1 (stereo not drawn)
1300 | CCOc1ccc(-c2nc(-c3cccc(-c4ccnn4CC)c3)no2)cc1OCC
622 | Cc1cc(NC(=O)c2cccc(N3C(=O)CCC3=O)c2)on1
1000 | Cc1ccc(NC(=O)Nc2nccn(-c3cccc(Cl)c3)c2=O)cc1F
1180 | CN(C)c1ccc(NC(=O)c2c(O)c3ccccc3n(-c3ccccc3)c2=O)cc1
639 | COc1ccc(NC(=O)Cn2nc3nc(N4CCSCC4)ccn3c2=O)cc1OC
859 | O=C(Nc1ccc(Cl)cc1)C1CCN(C(=O)c2ncn3c2COC(c2ccccc2)C3)CC1 (stereo not drawn)
1050 | O=C(CCCc1nc2ccccc2s1)N1CCC(CCOc2ccccc2)C1 (stereo not drawn)
883 | COc1cccc(NC(=O)C2CCN(S(=O)(=O)c3cc(-c4noc(C)n4)cs3)CC2)c1
830 | COc1ccc(C(=O)Nc2nnc(SCc3nnc(-c4ccccc4)o3)s2)cc1OC
907 | COc1ccc(NC(=O)N(C)CCc2noc(COc3cc(C)cc(C)c3)n2)cc1
819 | Cc1ccn2c(NC(=O)C(C)(C)Oc3ccc(Cl)cc3)c(-c3ccc(F)cc3)nc2c1

RP-LC retention time [s] | Structure (SMILES)
698 | COc1cccc(C(=O)N2C[C@@H]3C[C@H]2C[C@@H]3NC(=O)c2cccs2)c1OC
640 | COc1cccc(CC(=O)NC(C)C(=O)Nc2nc3ccccc3[nH]2)c1 (stereo not drawn)
1240 | CCc1ccc(NC(=O)Cc2c(C)nn(-c3nc(-c4ccc(F)cc4)cs3)c2C)cc1
741 | Cc1ccc(Nc2c(-c3ccc(C)cc3)nc3ccccn23)cc1
682 | O=C(c1ccccc1[N+](=O)[O-])N1CCN(Cc2nc(-c3ccco3)cs2)CC1
726 | CC(CNC(=O)c1nc(N2CCOCC2)c2ccccc2n1)c1ccccc1 (stereo not drawn)
931 | O=C(COc1ccc(F)cc1)Nc1cnc(N2CCCCC2)nc1
978 | Cc1nc(-c2cc(S(=O)(=O)N(Cc3ccccc3)C(C)C)c(C)s2)sc1C
570 | O=C(Nc1ccc(N2CCN(Cc3ccc(F)cc3)C2=O)nc1)c1cccs1
690 | Cc1ccn2cc(-c3ccc(NS(=O)(=O)c4ccc5ccccc5c4)cc3)nc2n1
740 | Cc1ccc(C)c(NC(=O)N2CCC(N3CCN(Cc4ccccc4)C(=O)C3=O)CC2)c1
635 | O=C(CSc1ccc(N2CCCC(C(=O)NC3CC3)C2)nn1)NCc1ccccc1Cl (stereo not drawn)
847 | Cc1ccc(Nc2nc(C(=O)NCc3ccc(C)o3)nc3ccccc23)cc1
793 | COc1ccccc1NC(=O)CSC1CCc2ccccc2NC1=O (stereo not drawn)
596 | Oc1ccc(-c2nc3ccccn3c2Nc2ccc3c(c2)OCCO3)cc1
730 | COc1ccc(OC)c(NC(=O)C2CCCN(c3cnc4nccnc4c3)C2)c1 (stereo not drawn)
1140 | COc1ccc(-c2ncc3c(n2)CCN(S(=O)(=O)c2ccc(C)cc2C)C3)cc1
1270 | O=c1c2sccc2n(Cc2nc(-c3ccc(C(F)(F)F)cc3)no2)c(=O)n1CCc1ccccc1
634 | COCCNC(=O)Cn1c(=O)n(-c2ccccc2)c2ncccc21
790 | COc1ccc(OC)c(NC(=O)CN2C(=O)NC(c3ccc(Cl)cc3)C3=C2COC3=O)c1 (stereo not drawn)
886 | CCOc1ccc(NC(=O)NC2CCN(c3cc(C)cc(C)c3)C2=O)cc1 (stereo not drawn)
1030 | COc1ccccc1-c1nc(C2CCN(C(=O)c3cc4cc(Cl)ccc4[nH]3)CC2)no1
847 | COc1ccc(NC(=O)Cn2nc(N3CCCC3)c3ccccc3c2=O)cc1
726 | COC(=O)c1ncn2c1C(=O)N(c1ccc(C)cc1C)C(C)(C(=O)NCc1ccccc1)C2 (stereo not drawn)
1310 | O=C(Nc1nc(-c2cc(Cl)sc2Cl)cs1)c1ccc([N+](=O)[O-])s1
1100 | COc1cccc(-c2nnc(Cc3nc(-c4ccc(Cl)cc4)no3)o2)c1
